Test [1] concerns DU-145 (human prostate adenocarcinoma). Nature of the test: Alamar blue cytotoxicity assay, DU-145. The note with it: for IC50: DU-145, Alamar blue, 24-h incubation, mean ± S.E.M. The format is cell-based. The source says: (§1) Human lung carcinoma (A549, ATCC® CCL-185™), human hepatocellular carcinoma (HepG2, ATCC® HB-8065™), and human breast adenocarcinoma (MDA-MB-231, ATCC® HTB-26™) were obtained from American Type Cell Collection (ATCC). Human melanoma (A-375, BCRJ-0278), Human colorectal adenocarcinoma (Caco-2, BCRJ 0059), human prostate adenocarcinoma (DU-145, BCRJ-0078, and PC-3, BCRJ-0269), human mouth fibroblast (FGH, BCRJ-0089), and human prostate epithelial cells (PNT-2, BCRJ-0366) were obtained from Rio de Janeiro Cells Bank (BCRJ). The cells A549, A-375, Caco-2, DU-145, HepG2, MDA-MB-231, and FGH were cultured in Dulbecco’s Modified Eagle’s Medium (DMEM, Gibco-Invitrogen®), PC-3 and PNT-2 cells were grown in Roswell Park Memorial Institute Medium (RPMI-1640, Gibco-Invitrogen®). Both mediums were supplemented according to the needs of each lineage, as recommended by its cell banks with 2 mM L-glutamine (Gibco-Invitrogen®), 10% or 20% fetal bovine serum (Gibco-Invitrogen®), 1% antibiotic-antimycotic solution (5 mg/ml penicillin, 5 mg/ml streptomycin, and 10 mg/ml neomycin, Gibco-Invitrogen®), and 3.7 g/L of NaHCO3 (Sigma-Aldrich). All cell lines were cultured in flasks at 37°C in 5% CO2 and 96% of relative humidity according to the procedures proposed by ([31]), and a mycoplasma stain kit (Sigma-Aldrich) was used to confirm the use of cells devoid of contamination. The assays were conducted between the third and the seventh-cell passage with sub-cultures every 3 to 4 days to maintain exponential growth. The cell viability was checked using the trypan blue dye exclusion assay for all experiments where over 95% of the cells were viable at the beginning of the tests.
(§2) The in vitro antiproliferative activity was quantified using the Alamar blue® assay, according to the method reported by ([32]). Cells were seeded in 96-well plates for all experiments (1.5 × 10^4 cells/well). After 24 h, the complexes were dissolved in DMSO and added to each well and incubated for 24 h. Dilutions of the complexes were prepared to obtain concentrations ranging from 0.3 to 100 μM. […] DMSO (0.1% v/v) was used as the vehicle control. Following 24 h of incubation, 50 μl of Alamar blue® (resazurin at 0.01% w/v, Sigma-Aldrich) was added to each well, and the plates were incubated, at 37°C, in the dark. Fluorescence reading was performed in a Synergy H1 Fluorescence Spectrophotometer (BioTek®), using excitation and emission filters at wavelengths of 560 and 590 nm, respectively. The fluorescence intensity was measured in arbitrary fluorescence units (AFU) and the AFU of untreated cells (CTL) was considered 100%. The cytotoxic effects of the compounds were estimated in terms of cell proliferation inhibition (%) and expressed as half-maximal inhibitory concentration (IC50). The cell proliferation inhibition percentage of cells exposed to treatments was calculated following: % Inhibition = 100 − (AFU of treated well/AFU of control well) × 100). The IC50 values were calculated from the cell proliferation inhibition percentage by nonlinear regression method using CompusSyn® Software.
On the technique in general: Alamar Blue is a resazurin reagent that responds to reducing activity.

The subject of test [2] is PNT-2 (human prostate epithelial cells). As to the kind of experiment: Alamar blue cytotoxicity assay, PNT-2 non-cancer cells. It counts as cell-based. The note with it: 24-h incubation, mean ± S.E.M.
Excerpt: as §1, §2

Test [3] has as its system FGH (human mouth fibroblast). Nature of the test: Alamar blue cytotoxicity assay, FGH non-cancer cells. The format is cell-based. The note with it: 24-h incubation, mean ± S.E.M.
Excerpt: as §1, §2

For test [4], the system named is DU-145 cells. As to the kind of experiment: Clonogenic assay. It counts as cell-based, human. The settings on record: 24 h treatment, colonies after 7 days. How it is done:
The clonogenic assay was performed in accordance with the guidelines of ([34]). […] DMSO (0.1% v/v) was used as the vehicle control. After 24 h, the cells were washed with PBS (Gibco-Invitrogen®) and harvested by trypsinization. Cells were counted using a Neubauer chamber and replated then on cell culture dishes of 21.5 cm^2 in a density of 200 cells per culture dish for each treatment in triplicate. After 7 days, cells were fixed in ice-cold methanol: acetic acid: distilled water (1:1:8), air-dried, and stained with crystal violet (0.5% w/v, Sigma-Aldrich) for 20 min. Colonies with at least 50 cells were counted. Plating efficiency (PE) of DU-145 cells was calculated by the ratio of the number of colonies observed after 7 days of incubation to the number of cells seeded (two hundred). The average of colonies in control was considered as 100%, and the number of colonies that arise after treatment of cells is called the surviving fraction (SF), obtained by:
SF = Numberofcoloniescountedineachtreatment/Numberofcoloniescountedincontrol x PE × 100

For test [5], the system named is PC-3 (human prostate adenocarcinoma). As to the kind of experiment: Alamar blue cytotoxicity assay, PC-3. The note with it: for IC50: PC-3, Alamar blue, 24-h incubation, mean ± S.E.M. It counts as cell-based.
Excerpt: as §1, §2

The test system of test [6] is DU-145 MCTSs. As to the kind of experiment: 3D multicellular tumor spheroids (MCTSs) culture. The format is cell-based, human. The settings on record: for IC50: 3D spheroids, 24 h, Alamar blue, read-out: IC50 against the DU-145 MCTSs. How it is done: Multicellular tumor spheroids (MCTSs) were obtained according to the method reported by ([33]). Briefly, 200 μl of a solution of DU-145 cells (2.0 × 10^3 cells/well) were inserted in agarose-coated 96-well plates (1.5% w/v) and cultured in complete medium plus 3% Matrigel® (Corning). DU-145-MCTSs with stable structures had formed after five days. […] Negative control received the vehicle (DMSO 0.1% v/v) that was used for diluting the compounds tested. Finally, the MCTS proliferation inhibition (%) and IC50 were determined by Alamar blue® assay as described above. To investigate morphological changes other MCTSs were treated with 0.25, 0.5, 1.0, 1.5, and 2.0 μM of complex (2) and examined for 7 days. Spheroid integrity and diameter of MCTSs were analyzed by phase-contrast microscopy (Inverted Trinocular Microscope Opton TNB-O5T-PL) using AxioVision LE software (Carl Zeiss, Germany).

The subject of test [7] is A-375 (human malignant melanoma). Nature of the test: Alamar blue cytotoxicity assay, A-375. The settings on record: for IC50: A-375, Alamar blue, 24-h incubation, mean ± S.E.M. It counts as cell-based.
Excerpt: as §1, §2

Turning to `CC(C)=CCC1=C([O-])C(=O)c2ccccc2C1=O.F[P-](F)(F)(F)(F)F.[Ru+2].c1ccc(P(CP(c2ccccc2)c2ccccc2)c2ccccc2)cc1.c1cnc2c(c1)ccc1cccnc12` [complex (2), [Ru(Lap)(dppm)(phen)]PF6], the half-maximal inhibitory concentration (IC50) was 0.8 ± 0.1 µM in test [1]; 6.8 ± 1.5 µM in test [2]; 2.5 ± 0.3 µM in test [3]; 1.1 ± 0.3 µM in test [5]; 1.9 µM in test [6]; 0.9 ± 0.3 µM in test [7]. Besides, the “cell viability with ROS scavenger NAC” value in test [1] (DU-145, cotreatment with 5 mM NAC, 24 h, Alamar blue) is recorded as “prevented the reduction of cell viability”. Further, the “Selectivity index (SI)” value in test [1] (SI = IC50[FGH]/IC50[DU-145]) worked out at 3.1; in test [1] (SI = IC50[PNT-2]/IC50[DU-145]), 8.5; in test [5] (SI = IC50[FGH]/IC50[PC-3]) it was 2.2; in test [5] (SI = IC50[PNT-2]/IC50[PC-3]), 6.2; in test [7] (SI = IC50[FGH]/IC50[A-375]) it was 2.7; in test [7] (SI = IC50[PNT-2]/IC50[A-375]) it was 7.5. The “survival fraction (SF)” value was 58.0% in test [4] (DU-145, 0.125 μM); 17.7% in test [4] (DU-145, 0.25 μM); 4.3% in test [4] (DU-145, 0.5 μM); 0% in test [4] (DU-145, 1.0 μM); 0% in test [4] (DU-145, 1.5 μM). Also, in test [6] (DU-145 MCTSs treated with 0.25-2.0 μM, examined for 7 days), the “total spheroid area over time” value is “decrease in the total spheroid area”. Also, the “more potent than cisplatin (fold)” value in test [6] (DU-145 MCTSs, IC50 ratio vs cisplatin) is listed as at least 32 fold.

Consider `CC(C)=CCC1=C([O-])C(=O)c2ccccc2C1=O.F[P-](F)(F)(F)(F)F.[Ru+2].c1ccc(-c2ccccn2)nc1.c1ccc(P(CP(c2ccccc2)c2ccccc2)c2ccccc2)cc1` [complex (1), [Ru(Lap)(dppm)(bipy)]PF6], for which the IC50 was 0.9 ± 0.2 µM in test [1]; 5.9 ± 2.1 µM in test [2]; 3.1 ± 0.2 µM in test [3]; 1.3 ± 0.4 µM in test [5]; 2.4 µM in test [6]; 2.5 ± 0.6 µM in test [7]. Besides, the “Selectivity index (SI)” value is 3.4 in test [1] (SI = IC50[FGH]/IC50[DU-145]); 6.5 in test [1] (SI = IC50[PNT-2]/IC50[DU-145]); 2.4 in test [5] (SI = IC50[FGH]/IC50[PC-3]); 4.5 in test [5] (SI = IC50[PNT-2]/IC50[PC-3]); 1.2 in test [7] (SI = IC50[FGH]/IC50[A-375]); 2.4 in test [7] (SI = IC50[PNT-2]/IC50[A-375]). Moreover, the “survival fraction (SF)” value in test [4] (DU-145, 0.125 μM) is 65.1%; in test [4] (DU-145, 0.25 μM), 35.1%; in test [4] (DU-145, 0.5 μM) it was 18.3%; in test [4] (DU-145, 1.0 μM), 9.0%; in test [4] (DU-145, 1.5 μM), 4.3%.

For orientation: IC50 means the concentration at which inhibition is half-maximal.

(Values after article PMC8264259, “A Novel Ruthenium(II) Complex With Lapachol Induces G2/M Phase Arrest Through Aurora-B Kinase Down-Regulation and ROS-Mediated Apoptosis in Human Prostate Adenocarcinoma Cells” (Frontiers in Oncology, 2021).)
